According to patent US20040229930A1, “Formulations comprising a basic indolinone compound” (Pharmacia Italia S.p.A., priority 2002, published 2004):

Assay: Bulk density determination of granules / drug substance
Type: physicochemical
Source text: Generally, bulk density is the weight of a unit volume of material. Bulk density is also known as “apparent density.” Bulk density is typically expressed as a weight:volume ratio, for example, kilograms per liter (Kg/L) or grams per cubic centimeter (g/cm[…]). Bulk desntiy of a material can be measured by techniques that are well known in the art, by measuring the weight and volume of the material. See the Examples section of this application for exemplary techniques for measurement of bulk density.
The tap and bulk density determinations are performed as follows:
(a) A 250 mL glass cylinder is filled with formulation granules to the 100-200 mL volume mark.
(b) The mass of the cyclinder is recorded and the bulk density is determined by calculating the ratio of the mass of the formulation granules to the volume of the formulation granules.

CCN(CC)CCNC(=O)c1c(C)[nH]c(/C=C2\C(=O)Nc3ccc(F)cc32)c1C [5-(5-fluoro-2-oxo-1,2-dihydro-indol-3-ylidenemethyl)-2,4-dimethyl-1H-pyrrole-3-carboxylic acid (2-diethylamino-ethyl)-amide]
bulk density (salt by itself): about 0.11±0.1

Cc1[nH]c(/C=C2\C(=O)Nc3ccc(F)cc32)c(C)c1C(=O)NCC(O)CN1CCOCC1 (centres unmarked) [5-[(Z)-(5-fluoro-2-oxo-1,2-dihydro-3H-indol-3-ylidene)methyl]-N-[2-hydroxy-3-morpholin-4-ylpropyl]-2,4-dimethyl-1H-pyrrole-3-carboxamide]
bulk density (maleate salt by itself): 0.05 to 0.07 kg/L
